# According to patent publication US10047104B2, “Bicyclic heterocyclyl derivatives as IRAK4 inhibitors” (Aurigene Discovery Technologies Limited, priority 2014, dated 2018):
# Molecular target: T1, recombinant IRAK-4 kinase (Homo sapiens, UniProt Q9NWZ3)
# T1 construct: purchased Millipore, USA
# T1 sequence (Q9NWZ3 1-460): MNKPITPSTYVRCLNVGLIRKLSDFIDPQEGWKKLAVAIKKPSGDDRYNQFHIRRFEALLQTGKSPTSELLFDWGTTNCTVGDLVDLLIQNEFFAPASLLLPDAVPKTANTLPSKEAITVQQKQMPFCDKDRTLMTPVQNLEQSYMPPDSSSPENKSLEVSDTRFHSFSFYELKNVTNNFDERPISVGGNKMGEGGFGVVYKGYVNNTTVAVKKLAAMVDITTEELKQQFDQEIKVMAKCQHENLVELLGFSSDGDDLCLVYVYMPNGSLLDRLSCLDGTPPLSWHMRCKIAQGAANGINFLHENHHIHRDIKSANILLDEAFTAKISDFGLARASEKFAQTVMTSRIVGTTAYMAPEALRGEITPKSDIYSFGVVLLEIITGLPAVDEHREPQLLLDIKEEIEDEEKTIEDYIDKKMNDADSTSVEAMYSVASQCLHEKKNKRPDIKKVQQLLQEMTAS
# Assay: IRAK-4 Biochemical Assay (TR-FRET)
# Conditions: 5 ng IRAK-4 kinase, 100 nM Biotin Histone H3, 20 μM ATP, 30 minutes pre-incubation, read-out: IC50 values for IRAK4 activity
# How it was run: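 Recombinant IRAK-4 (5 ng) pre-incubated with compound 30 min at room temperature in Tris-HCl pH 7.5 with MgCl2/MnCl2, then 100 nM biotin-histone H3 and 20 μM ATP added for 30 min. Stopped with EDTA; phospho-Ser10 read by TR-FRET (Eu-antibody/APC-streptavidin).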
smiles,measurement,value
"COc1ccc(-c2nc(C(=O)Nc3cc4oc(N5CCOCC5)nc4nc3N3CC[C@H](O)C3)co2)cn1 [Example 103, (S)—N-(5-(3-hydroxypyrrolidin-1-yl)-2-morpholinooxazolo[4,5-b]pyridin-6-yl)-2-(6-methoxypyridin-3-yl)oxazole-4-carboxamide]",IC50,> 100 nM
